Measured values taken from US20260034094A1, “COMPOSITIONS AND METHODS FOR INDUCING FERROPTOSIS” (Kojin Therapeutics, Inc., priority 2022, published 2026).

Key:
cancer cells = assay: Cell line profiling with a ferroptosis-inducing agent with and without a rescue agent (CellTiter-Glo); assay type: cell-based, human; conditions: for fractional viability of cancer cells with fer-1 co-treatment: +1.5 μM fer-1
Description: Cell viability assays are performed by seeding 1,000 cells per well (30 μl volume) in opaque white 384-well plates (Corning). Cells are allowed to adhere for 24 h, after which they are exposed to compounds for 72 hours. DMSO stock solutions of compounds are added to cells using a CyBio Well Vario liquid dispenser (Analytik Jena AG). Cellular ATP levels are measured using CellTiter-Glo (Promega) as a surrogate for viability. Rescue assays are performed using rescue agents-ferrostatin-1 (fer-1, 1.5 μM), liproxstatin-1 (lip-1, 1 μM), deferoxamine (DFO, 50 μM), and other ferroptosis inhibitors added to cells at the time of addition to assay plates. Dose-response curves for BSO and RSL3 are shown in FIG. 4 with and without anti-ferroptosis rescue agent treatment (indicated as no treatment or +1.5 μM fer-1).

solid tumor animal model = assay: Microdosing tumors with ferroptosis-inducing agents (implantable drug delivery system, cleaved caspase-3 / H&E staining); assay type: in vivo, C57BL6/J mice; conditions: for tumor response (cleaved caspase-3 staining: cell death, white blood cell recruitment): local sustained administration, 1-10 μM at the tumor site, 24 hours
Description: For the allograft study, cancer cell line-derived tumor cells were injected into the flanks of male C57BL6/J mice. Assays were initiated when the tumor diameter was approximately 6-7 mm.
Microdose drug delivery was performed for the assay described herein. The compounds in Table 22 were packed into device reservoirs using a tapered metal needle. Reservoirs were loaded for initial release of liproxstatin-1 (where included) followed by a 4-6 h delayed release of ferroptosis inducers. Devices were prepared for dose administration into mouse tumors. Devices delivered the ferroptosis inducing agent for 24-72 hours in the tissue. The tumor was then excised, and the tissue was snap frozen with liquid nitrogen. Tissue was sectioned using a standard cryotome, and tissue slices of 20 μm in thickness were collected from each reservoir for analysis by immunoassays, transcriptomics, and metabolomic assays.
A drug delivery system was applied to a: solid tumor animal model. Animals were administered (1) L-BSO or (2) L-BSO+liproxstatin-1 (lip-1) as a ferroptosis-rescue agent. Drugs were loaded into an implantable drug delivery system to achieve concentrations of 1-10 μM for both BSO+lip-1 at the tumor site. After 24 hours, tumors were removed and stained for cleaved caspase-3 to indicate cell death in the tumor (FIG. 2A). […] Therefore, ferroptosis can be induced by both local and systemic administration of BSO.
A drug delivery system was applied to a: solid tumor animal model. Animals were administered (1) ML-210 or (2) ML-210+liproxstatin-1 (lip-1), as a ferroptosis rescue agent. Drugs were loaded into an implantable drug delivery system to achieve concentrations of 1-10 μM for both ML-210 and ML-210+liproxstatin-1 (lip-1) at the tumor site. After 24 hours, tumors were removed and stained for cleaved caspase-3.
To achieve therapeutic doses of RSL3 in vivo, a drug delivery system was applied to a: solid tumor animal model. Animals were administered (1) RSL3 or (2) RSL3+liproxstatin (lip-1) as a ferroptosis rescue agent. Drugs were loaded into an implantable drug delivery system to achieve concentrations of 1-10 μM for both RSL-3 and RSL3 and lip-1 co-administration at the tumor site. After 24 hours of sustained administration, tumors were removed and stained for cleaved caspase-3 (FIG. 5A). Dashed lines indicate region of drug exposure.

human recombinant GCL = human recombinant GCL (Homo sapiens (Human), UniProt P48506); assay: GCL enzyme profiling assay (ADP-Glo luminescence); assay type: biochemical; conditions: human recombinant GCL, ADP-Glo; read-out: GCL IC50
human recombinant GCL, sequence (P48506 whole entry): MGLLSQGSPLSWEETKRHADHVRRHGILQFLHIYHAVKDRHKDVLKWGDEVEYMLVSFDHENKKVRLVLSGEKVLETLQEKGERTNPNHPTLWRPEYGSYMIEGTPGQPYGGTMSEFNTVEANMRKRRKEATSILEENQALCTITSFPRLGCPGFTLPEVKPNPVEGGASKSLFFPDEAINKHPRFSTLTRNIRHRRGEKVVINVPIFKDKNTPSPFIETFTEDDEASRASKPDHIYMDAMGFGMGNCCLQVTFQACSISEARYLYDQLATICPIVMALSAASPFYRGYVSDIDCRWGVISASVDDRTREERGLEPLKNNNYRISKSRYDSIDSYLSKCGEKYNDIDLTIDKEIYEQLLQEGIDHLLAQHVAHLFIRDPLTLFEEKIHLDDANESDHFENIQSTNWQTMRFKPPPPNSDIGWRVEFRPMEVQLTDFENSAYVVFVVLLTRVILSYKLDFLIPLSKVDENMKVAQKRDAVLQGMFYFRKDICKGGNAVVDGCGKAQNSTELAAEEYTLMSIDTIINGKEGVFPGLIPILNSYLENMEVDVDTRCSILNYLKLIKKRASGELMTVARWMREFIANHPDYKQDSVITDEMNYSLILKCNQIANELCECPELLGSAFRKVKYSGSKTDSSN
In short: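 ADP-Glo luminescence readout; 5 nM enzyme preincubated 1 h at 22 °C with 0.6 mM ATP, then started with 1 mM glutamate and 1.2 mM α-aminobutyrate, stopped after 2 h. Buffer: HEPES pH 7.5, MgCl2, DTT, BSA, 0.2% F-127, 1% DMSO. IC50 from four-parameter logistic fit.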

RKN cells = assay: RKN cell profiling assay (cell viability, CellTiter-Glo); assay type: cell-based; conditions: cell viability, read-out: Cell Killing EC50
In short: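 Cells seeded at 1,000/well in F-12 with 10% FBS, left to adhere 24 h, then compound-treated for 96 h at 0.5% final DMSO. Viability by CellTiter-Glo luminescence; EC50 from four-parameter logistic fit. Ferroptosis rescue runs included 1.5 μM ferrostatin-1 added at seeding.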

Structure (SMILES) | IC50 (human recombinant GCL) [µM] | EC50 (RKN cells) [µM] | other results
CCCCS(=N)(=O)CC[C@H](N)C(=O)O (stereo partly shown) [BSO, buthionine sulfoximine] |  |  | fractional viability of cancer cells with fer-1 co-treatment (cancer cells): not observed; fractional viability of tumor (solid tumor animal model; compared with BSO+fer-1 treated sections of the tumor): significant reductions in fractional viability; tumor response (cleaved caspase-3 staining: cell death, white blood cell recruitment) (solid tumor animal model): recruitment of white blood cells to the tumor indicating immune cell recruitment and cell death at the tumor site
N=S(=O)(CC[C@H](N)C(=O)O)CCC1(c2ncc(-c3ccc(Cl)cc3Cl)cn2)CCC1 (stereo partly drawn) [Compound 498, (2S)-2-amino-4-(2-(1-(5-(2,4-dichlorophenyl)pyrimidin-2-yl)cyclobutyl)ethylsulfonimidoyl) butanoic acid] | ≤ 20 | < 1000 | 
N[C@@H](CCS(=O)(=O)NCC(O)(c1ccc(-c2ccc(Cl)cc2Cl)cn1)C(F)(F)F)C(=O)O (stereo partly drawn) [Compound 513, (2S)-2-amino-4-(N-(2-(5-(2,4-dichlorophenyl)pyridin-2-yl)-3,3,3-trifluoro-2-hydroxypropyl)sulfamoyl)butanoic acid] | ≤ 20 | ≥ 1000 | 
N[C@@H](CCS(=O)(=O)NCC(O)(c1ccc(-c2ccccc2)cn1)C(F)(F)F)C(=O)O (stereo partly drawn) [Compound 514, (2S)-2-amino-4-(N-(3,3,3-trifluoro-2-hydroxy-2-(5-phenylpyridin-2-yl)propyl)sulfamoyl)butanoic acid] | 20 to 2000 | ≥ 1000 | 
CCOC(=O)c1ccc(NC2CCCCC2)c(N)c1 [Ferrostatin-1, ferrostatin-1] |  |  | rescue from cell death (cancer cells; RSL3 and BSO treated tumors in vivo, 1.5 μM fer-1): prevents cell death
Cc1onc(C(=O)N2CCN(C(c3ccc(Cl)cc3)c3ccc(Cl)cc3)CC2)c1[N+](=O)[O-] [ML-210] |  |  | tumor response (cleaved caspase-3 staining: cell death, white blood cell recruitment) (solid tumor animal model): recruitment of white blood cells to the tumor indicating immune cell recruitment and cell death at the tumor site
COC(=O)c1ccc([C@H]2c3[nH]c4ccccc4c3C[C@H](C(=O)OC)N2C(=O)CCl)cc1 [RSL3, (1S,3R)-RSL3] |  |  | fractional viability of cancer cells with fer-1 co-treatment (cancer cells): reduction in the fractional viability of cancer cells; ferroptosis induction (cancer cells; dose-response, with and without 1.5 μM fer-1): robust inducer of ferroptosis; tumor response (cleaved caspase-3 staining: cell death, white blood cell recruitment) (solid tumor animal model): White blood cell recruitment and cell death were prominent
N=[S@@](=O)(CC[C@H](N)C(=O)O)CCC1(c2ccccn2)CCC1 [compound 388] | 20 to 2000 | < 1000 | 
N=[S@](=O)(CC[C@H](N)C(=O)O)CCC1(c2ccccn2)CCC1 [compound 389] | > 2000 | ≥ 1000 | 
N[C@@H](CCS(=O)(=O)CCC1(c2ccccn2)CCC1)C(=O)O [compound 390] | > 2000 | ≥ 1000 | 
N=S(=O)(CCC(c1ccc(S(=O)(=O)Nc2ccccc2)cc1)C(F)(F)F)CC[C@H](N)C(=O)O (stereo partly shown) [compound 499] | ≤ 20 | ≥ 1000 | 
N=[S@SP2](=O)(CCC(N)C(=O)O)CCC12CC(c3ccc(C(F)(F)F)cc3)(C1)C2(F)F (stereo not shown) [compound 500] | ≤ 20 | ≥ 1000 | 
N=S(=O)(CC[C@H](N)C(=O)O)CCC(O)(c1ccc(Oc2ccc3ccc(=O)oc3c2)cc1)C(F)(F)F (stereo partly shown) [compound 501] | ≤ 20 | ≥ 1000 | 
N=S(=O)(CC[C@H](N)C(=O)O)CCC(O)(c1nc2ccccc2o1)C(F)(F)F (stereo partly shown) [compound 502] | ≤ 20 | < 1000 | 
N=S(=O)(CC[C@H](N)C(=O)O)CCC(O)(C1[C@@H](c2ccccc2)[C@H]1c1ccccc1)C(F)(F)F (stereo partly shown) [compound 503] | 20 to 2000 | ≥ 1000 | 
CC(=O)N(c1ccc(C(O)(CC[S@SP3](=N)(=O)CCC(N)C(=O)O)C(F)(F)F)cc1)c1nccs1 (stereo not shown) [compound 504] | ≤ 20 | ≥ 1000 | 
N=[S@SP2](=O)(CCC(N)C(=O)O)CCC(O)(c1ccc(Nc2nccs2)cc1)C(F)(F)F (stereo not shown) [compound 505] | ≤ 20 | ≥ 1000 | 

Second part, led by results:

IC50 (human recombinant GCL) [µM] | Structure (SMILES) | EC50 (RKN cells) [µM] | other results
20 to 2000 | CC(=O)Nc1ccc(C(O)(CCS(=N)(=O)CC[C@H](N)C(=O)O)C(F)(F)F)cc1 (stereo partly shown) [compound 506] | < 1000 | 
≤ 20 | N=[S@SP2](=O)(CCC(N)C(=O)O)CCC(O)(c1ccc(N[S@SP3](=O)(=O)c2ccccc2)cc1)C(F)(F)F (stereo not shown) [compound 507] | ≥ 1000 | 
20 to 2000 | N=[S@SP2](=O)(CCC(N)C(=O)O)CCC(c1ccccc1)(C(F)(F)F)C(F)(F)F (stereo not shown) [compound 508] | ≥ 1000 | 
≤ 20 | N=[S@SP2](=O)(CCC(N)C(=O)O)CCC(c1ccc(-c2ccccc2)cc1)(C(F)(F)F)C(F)(F)F (stereo not shown) [compound 509] | ≥ 1000 | 
≤ 20 | N=S(=O)(CC[C@H](N)C(=O)O)CCC(c1ccc(-c2ccc(Cl)cc2Cl)cc1)(C(F)(F)F)C(F)(F)F (stereo partly shown) [compound 510] | ≥ 1000 | 
20 to 2000 | N=S(=O)(CC[C@H](N)C(=O)O)CCC1(C(F)(F)F)OCc2ccccc21 (stereo partly shown) [compound 511] | < 1000 | 
> 2000 | N[C@@H](CCS(=O)(=O)CCC1(C(F)(F)F)OC(=O)c2ccccc21)C(=O)O (stereo partly shown) [compound 512] | ≥ 1000 | 
≤ 20 | N=[S@@](=O)(CC[C@H](N)C(=O)O)CCC1(CO)CCC1 [compound 515] | < 1000 | 
> 2000 | N[C@@H](CCS(=O)(=O)CCC(O)C(F)(F)F)C(=O)O (stereo partly shown) [compound 516] | ≥ 1000 | 
